This is an account of results in US7659394B2 (Pfizer Inc, priority 2004, dated 2010).

The target of assay [1] is T1, human norepinephrine transporter (Homo sapiens, UniProt P23975).
T1 construct: host or cells: HEK-293
The assay can be described thus: hNET receptor binding ([125I]-RTI-55 radioligand binding). The following applies: membranes of HEK-293 cells transfected with human norepinephrine transporter, IC50 converted to Ki by Cheng-Prusoff, read-out: hNET (Ki). An excerpt: (§1) The ability of the compounds of this invention to bind to the hNET and serotonin SERT receptor can be determined using conventional radiolig and receptor binding assays. The receptors can be heterologously expressed in cell lines and experiments conducted in membrane preparations from the cell lines using procedures outlined below. IC50 concentrations can be determined by nonlinear regression of concentration-dependent reduction in specific binding. The Cheng-Prussoff equation can be used to convert the IC50 to Ki concentrations.
Cell pastes of HEK-293 cells transfected with the human norepinephrine transporter were supplied by the Pfizer Ann Arbor Protein Expression and Production group. […] Aliquots of membranes (5 mg/ml protein) were stored in liquid nitrogen until used.
The reaction was incubated by gentle agitation for 90 min at room temperature and was terminated by filtration through Whatman GF/C filter plates using a Brandel 96-well plate harvester. […] Test compounds were run in duplicate, and specific binding was defined as the difference between binding in the presence and absence of 10 μM desipramine.
(§2) Excel and GraphPad Prism software were used for data calculation and analysis. IC50 values were converted to Ki values using the Cheng-Prusoff equation.

The target of assay [2] is T2, human seritonin transporter (Homo sapiens, UniProt P31645).
T2 construct: host or cells: HEK-293
The assay can be described thus: hSERT receptor binding ([125I]-RTI-55 radioligand binding). The following applies: membranes of HEK-293 cells transfected with human seritonin transporter, IC50 converted to Ki by Cheng-Prusoff, read-out: SERT (Ki).
From the text: as §1
Cell pastes of HEK-293 cells transfected with the human seritonin transporter were supplied by the Pfizer Ann Arbor Protein Expression and Production group. […] Aliquots of membranes (5 mg/ml protein) were stored in liquid nitrogen until used.
The reaction was incubated by gentle agitation for 90 min at room temperature and was terminated by filtration through Whatman GF/C filter plates using a Brandel 96-well plate harvester. […] Test compounds were run in duplicate, and specific binding was defined as the difference between binding in the presence and absence of […] citalopram.
as §2

T1 sequence (P23975 whole entry): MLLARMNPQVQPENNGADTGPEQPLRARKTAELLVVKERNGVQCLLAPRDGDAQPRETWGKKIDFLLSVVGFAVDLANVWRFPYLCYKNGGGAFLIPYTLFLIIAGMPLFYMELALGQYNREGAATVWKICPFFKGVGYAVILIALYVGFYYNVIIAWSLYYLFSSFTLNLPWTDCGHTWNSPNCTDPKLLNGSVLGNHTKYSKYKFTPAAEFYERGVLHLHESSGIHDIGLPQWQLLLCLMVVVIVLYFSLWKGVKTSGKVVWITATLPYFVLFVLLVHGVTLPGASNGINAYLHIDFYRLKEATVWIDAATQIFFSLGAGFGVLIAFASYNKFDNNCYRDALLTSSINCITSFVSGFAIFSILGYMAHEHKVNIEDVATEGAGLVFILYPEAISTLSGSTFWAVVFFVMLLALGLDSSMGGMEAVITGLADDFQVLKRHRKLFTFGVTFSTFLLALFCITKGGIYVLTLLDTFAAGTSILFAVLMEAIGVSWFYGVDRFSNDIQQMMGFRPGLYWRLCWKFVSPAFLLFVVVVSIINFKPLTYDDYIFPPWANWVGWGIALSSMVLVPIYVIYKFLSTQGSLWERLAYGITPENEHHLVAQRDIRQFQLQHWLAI
T2 sequence (P31645 whole entry): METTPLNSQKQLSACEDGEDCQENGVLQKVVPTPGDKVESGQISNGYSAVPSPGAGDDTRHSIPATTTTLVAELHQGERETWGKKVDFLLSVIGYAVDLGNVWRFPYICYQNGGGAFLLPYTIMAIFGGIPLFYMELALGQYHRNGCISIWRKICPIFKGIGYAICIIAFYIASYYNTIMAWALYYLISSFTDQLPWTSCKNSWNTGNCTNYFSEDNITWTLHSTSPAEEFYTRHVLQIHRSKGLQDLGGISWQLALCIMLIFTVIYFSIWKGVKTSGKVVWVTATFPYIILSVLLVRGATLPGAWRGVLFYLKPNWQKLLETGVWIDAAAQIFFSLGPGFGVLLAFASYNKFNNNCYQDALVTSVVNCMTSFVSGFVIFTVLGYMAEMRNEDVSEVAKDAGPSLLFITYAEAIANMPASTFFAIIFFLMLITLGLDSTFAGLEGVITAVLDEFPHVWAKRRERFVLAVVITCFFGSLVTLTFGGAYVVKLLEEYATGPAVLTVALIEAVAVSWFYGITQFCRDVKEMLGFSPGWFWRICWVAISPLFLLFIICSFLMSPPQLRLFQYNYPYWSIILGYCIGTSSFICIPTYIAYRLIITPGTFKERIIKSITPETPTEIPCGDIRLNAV

`CS(=O)(=O)c1ccccc1O[C@@H](c1ccccc1)[C@@H]1CNCCO1` [Example 54, (S)-2-[(S)-(2-Methanesulfonyl-phenoxy)-phenyl-methyl]-morpholine]: the Ki (in general, a measure of affinity in units of concentration, obtained from inhibition or displacement) in assay [1] was 1310 nM; in assay [2] it was no less than 10000 nM.
On the same counts, the results for `c1ccc([C@H](Oc2ccccc2C2CCCC2)[C@@H]2CNCCO2)cc1` [Example 55, (S)-2-[(S)-(2-Cyclopentyl-phenoxy)-phenyl-methyl]-morpholine] are 12 nM and 2240 nM.
On the same counts, the results for `c1ccc([C@H](Oc2ccccc2C2CCCCC2)[C@@H]2CNCCO2)cc1` [Example 56, (S)-2-[(S)-(2-Cyclohexyl-phenoxy)-phenyl-methyl]-morpholine] are 41 nM and 2460 nM.
On the same counts, the results for `FC(F)Oc1ccccc1O[C@@H](c1ccccc1)[C@@H]1CNCCO1` [Example 57, (S)-2-[(S)-(2-Difluoromethoxy-phenoxy)-phenyl-methyl]-morpholine] are 24 nM and 94 nM.
For the compound `FCCOc1ccccc1O[C@@H](c1ccccc1)[C@@H]1CNCCO1` [Example 58, (S)-2-{(S)-[2-(2-Fluoro-ethoxy)-phenoxy]-phenyl-methyl}-morpholine], the Ki in assay [1] was found to be 7.4 nM; in assay [2] it was 965 nM.
The like results for `CC(C)Cc1cc(F)ccc1O[C@@H](c1ccccc1)[C@@H]1CNCCO1` [Example 59, (S)-2-[(S)-(4-Fluoro-2-isobutyl-phenoxy)-phenyl-methyl]-morpholine] were, in that order, 61 nM and 206 nM.
On the same counts, the results for `Fc1cccc(Cl)c1O[C@@H](c1ccccc1)[C@@H]1CNCCO1` [Example 60] are 14 nM and 78 nM.
The like results for `c1ccc([C@H](Oc2ccccc2CC2CC2)[C@@H]2CNCCO2)cc1` [Example 61, (S)-2-[(S)-(2-Cyclopropylmethyl-phenoxy)-phenyl-methyl]-morpholine] were, in that order, 68 nM and 6600 nM.
For the compound `Clc1cccc(Cl)c1O[C@@H](c1ccccc1)[C@@H]1CNCCO1` [Example 62, (S)-2-[(S)-(2,6-Dichloro-phenoxy)-phenyl-methyl]-morpholine], the Ki in assay [1] was found to be 12 nM; in assay [2], 65 nM.
As to `CCOCc1ccccc1O[C@@H](c1ccccc1)[C@@H]1CNCCO1` [Example 63, (S)-2-[(S)-(2-Ethoxymethyl-phenoxy)-phenyl-methyl]-morpholine], the Ki is 28 nM in assay [1] and 2540 nM in assay [2].
For `CN(C)c1ccccc1O[C@@H](c1ccccc1)[C@@H]1CNCCO1` [Example 64, (2S,3S)-Dimethyl-[2-(morpholin-2-yl-phenyl-methoxy)-phenyl]-amine], the Ki is 119 nM in assay [1] and no less than 10000 nM in assay [2].
For `Fc1ccc(Oc2ncccc2O[C@@H](c2ccccc2)[C@@H]2CNCCO2)cc1` [Example 65, (S)-2-{(S)-[2-(4-Fluoro-phenoxy)-pyridin-3-yloxy]-phenyl-methyl}-morpholine], the figures for the Ki in assay [1] and in assay [2] were 85 nM and 1200 nM, respectively.
The like results for `Fc1ccc([C@H](Oc2c(F)cccc2F)[C@H]2CNCCO2)cc1` [Example 66, (R)-2-[(S)-(2,6-Difluoro-phenoxy)-(4-fluoro-phenyl)-methyl]-morpholine] were, in that order, 81 nM and 176 nM.
The like results for `Brc1ccccc1O[C@@H](c1ccccc1)[C@H]1CNCCO1` [Example 67, (R)-2-[(S)-(2-Bromo-phenoxy)-phenyl-methyl]-morpholine] were, in that order, 21 nM and 93 nM.
Consider `Fc1ccc(O[C@@H](c2ccccc2)[C@@H]2CNCCO2)c(F)c1` [Example 68, (S)-2-[(S)-(2,4-Difluoro-phenoxy)-phenyl-methyl]-morpholine], for which the values for the Ki in assay [1] and in assay [2] were 19 nM and 660 nM, respectively.
On the same counts, the results for `Fc1ccc(O[C@@H](c2ccccc2)[C@@H]2CNCCO2)cc1` [Example 69, (S)-2-[(S)-(4-Fluoro-phenoxy)-phenyl-methyl]-morpholine] are 26 nM and 1890 nM.
`c1ccc([C@H](Oc2ccccc2C2CC2)[C@H]2CNCCO2)cc1` [Example 71, (R)-2-[(S)-(2-Cyclopropyl-phenoxy)-phenyl-methyl]-morpholine]: the values for the Ki in assay [1] and in assay [2] were 50 nM and 65 nM, respectively.
The like results for `Clc1ccccc1-c1ccccc1OCC1CNCCO1` (stereo not drawn) [Example 73, 2-(2′-Chloro-biphenyl-2-yloxymethyl)-morpholine] were, in that order, 595 nM and no less than 10000 nM.
On the same counts, the results for `COc1ccccc1-c1ccccc1OCC1CNCCO1` (stereo not drawn) [Example 74, 2-(2′-Methoxy-biphenyl-2-yloxymethyl)-morpholine] are 55 nM and no less than 10000 nM.
The like results for `Fc1ccc(-c2cc(F)ccc2OCC2CNCCO2)cc1` [Example 76, (R)- and (S)-2-(5,4′-Difluoro-biphenyl-2-yloxymethyl)-morpholine] were, in that order, 64 nM and 349 nM.
As to `c1ccc(Oc2ncccc2OC[C@H]2CNCCO2)cc1` [Example 77, (R)-2-(2-Phenoxy-pyridin-3-yloxymethyl)-morpholine], the results for the Ki in assay [1] and in assay [2] were 3160 nM and no less than 10000 nM, respectively.
On the same counts, the results for `Fc1ccc(Oc2ncccc2OC[C@@H]2CNCCO2)cc1F` [Example 79, (S)-2-[2-(3,4-Difluoro-phenoxy)-pyridin-3-yloxymethyl]-morpholine] are 10 nM and 9650 nM.
The like results for `c1ccc(O[C@@H](c2ccccc2)[C@@H]2CNCCO2)cc1` [Example 80, (S)-2-((S)-Phenoxy-phenyl-methyl)-morpholine] were, in that order, 7.5 nM and 3670 nM.
The like results for `Fc1ccc(-c2ccccc2O[C@@H](c2ccccc2)[C@@H]2CNCCO2)cc1` [Example 81, (S)-2-[(S)-(4′-Fluoro-biphenyl-2-yloxy)-phenyl-methyl]-morpholine] were, in that order, 9.6 nM and 4320 nM.
Turning to `Cc1ccc(-c2ccccc2O[C@@H](c2ccccc2)[C@@H]2CNCCO2)cc1` [Example 82, (S)-2-[(S)-(4′-Methyl-biphenyl-2-yloxy)-phenyl-methyl]-morpholine], the Ki turned out to be 11 nM in assay [1] and 2610 nM in assay [2].
On the same counts, the results for `c1ccc(COc2ccccc2O[C@@H](c2ccccc2)[C@@H]2CNCCO2)cc1` [Example 83, (S)-2-[(S)-(2-Benzyloxy-phenoxy)-phenyl-methyl]-morpholine] are 3.9 nM and 3120 nM.
On the same counts, the results for `Fc1ccccc1O[C@@H](c1ccccc1)[C@@H]1CNCCO1` [Example 84, (S)-2-[(S)-(2-Fluoro-phenoxy)-phenyl-methyl]-morpholine] are 7.3 nM and 4860 nM.
The like results for `OCc1ccccc1O[C@@H](c1ccccc1)[C@@H]1CNCCO1` [Example 85, (2S,3S)-[2-(Morpholin-2-yl-phenyl-methoxy)-phenyl]-methanol] were, in that order, 37 nM and 869 nM.
As for `Fc1ccccc1-c1ccccc1O[C@@H](c1ccccc1)[C@@H]1CNCCO1` [Example 86, (S)-2-[(S)-(2′-Fluoro-biphenyl-2-yloxy)-phenyl-methyl]-morpholine], the inhibition constant (Ki) turned out to be 14 nM in assay [1] and 8090 nM in assay [2].
On the same counts, the results for `Fc1ccc(OC(c2ccccn2)[C@H]2CNCCO2)c(F)c1` (stereo partly drawn) [Example 87, (2R,3R)-2-[(2,4-Difluoro-phenoxy)-pyridin-2-yl-methyl]-morpholine] are 2890 nM and 953 nM.
On the same counts, the results for `Fc1ccc(Oc2ncccc2OC[C@H]2CNCCO2)cc1` [Example 89, (2R)-2-[2-(4-Fluoro-phenoxy)-pyridin-3-yloxymethyl]-morpholine] are 4110 nM and no less than 10000 nM.
Regarding `CCOc1ccccc1O[C@H](c1cccnc1)[C@H]1CNCCO1` [Example 90, (2R)-2-[(R)-(2-Ethoxy-phenoxy)-pyridin-3-yl-methyl]-morpholine], the Ki in assay [1] was determined as 211 nM; in assay [2], 5050 nM.
The like results for `N#Cc1ccccc1O[C@@H](c1ccccc1)[C@@H]1CNCCO1` [Example 93, 2-[(S)-(2S)-morpholin-2-yl(phenyl)methoxy]benzonitrile] were, in that order, 11 nM and 5600 nM.
Regarding `Fc1ccc(Cl)c(OC(c2ccccc2)[C@@H]2CNCCO2)c1` (stereo partly drawn) [Example 94, (2S)-2-[(2-chloro-5-fluorophenoxy)(phenyl)methyl]morpholine], the Ki was 8 nM in assay [1] and 811 nM in assay [2].
For `COc1cccc(F)c1OC(c1ccccc1)[C@@H]1CNCCO1` (stereo partly drawn) [Example 95, (2S)-2-[(2-fluoro-6-methoxyphenoxy)(phenyl)methyl]morpholine], the Ki was determined as 3 nM in assay [1] and 3410 nM in assay [2].
The like results for `Fc1ccc(F)c(O[C@@H](c2ccccc2)[C@@H]2CNCCO2)c1` [Example 96, (2S)-2-[(S)-(2,5-difluorophenoxy)(phenyl)methyl]morpholine] were, in that order, 12 nM and 4450 nM.
